Experimental data reported in patent US20240342186A1, “PYRIDINE DERIVATIVES WITH N-LINKED CYCLIC SUBSTITUENTS AS cGAS INHIBITORS” (Boehringer Ingelheim International GmbH, priority 2021, published 2024).

How the values were obtained:
cGAS = cGAS (Homo sapiens (Human), UniProt Q8N884); assay: Human cGAS enzyme assay (hcGAS IC50, in vitro), cGAMP formation by RapidFire MS; type: biochemical; settings: biochemical (in vitro) cGAS inhibition;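 also: enzyme activated by 45 bp dsDNA with GTP and ATP (30 µM each), 60 min compound pre-incubation then 90 min reaction, cGAMP relative to cyclic-di-GMP internal standard, 8-point dilutions up to 10 µM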
[1] = system: cellular cGAS activity in baculovirus-stimulated THP1-Dual cells (IRF dependent Lucia luciferase reporter); assay: Human cGAS cell assay: inhibition of IFN induction in virus-stimulated THP1 cells (THP1(vir) IC50); type: cell-based; settings: Homo sapiens, THP1-Dual; inhibition of IFN induction in virus-stimulated THP1 cells; read-out: THP1(vir) IC50
From the text: (§1) 6.2 Method: Human cGAS Cell Assay and cGAMP Stimulated Counter Cell Assay (THP1(vir) IC50 and THP1(cGAMP) IC50)
(§2) THP1-Dual™ cells (InvivoGen #thpd-nfis) expressing IRF dependent Lucia luciferase reporter were used as basis for both assays. For the detection of cellular cGAS activity cells were stimulated by a baculovirus (pFastbac-1, Invitrogen, no coding insert) infection that delivers the cGAS enzyme stimulating double-stranded DNA (measurement of THP1(vir) IC50).
(§3) For the counter assay, cells were stimulated by cGAMP (SigmaAldrich #SML1232) to activate the identical pathway independent and directly downstream of cGAS (measurement of THP1(cGAMP) IC50). Pathway activity was monitored by measuring the Lucia luciferase activity induced by either DNA stimulated cGAS enzyme activity (measurement of THP1(vir) IC50) or by cGAMP directly (measurement of THP1(cGAMP) IC50, counter assay).
(§4) Compounds were delivered in 10 mM DMSO solution, serially diluted and transferred to the 384 well assay plate (Greiner #781201) using an Echo acoustic dispenser. Typically, 8 concentrations were used with the highest concentration at 10 μM in the final assay volume followed by ˜1:5 dilution steps. DMSO concentration was set to 1% in the final assay volume. The 384 well assay plate contained 21 test compounds (column 1-22), and DMSO in column 23 and 24.
(§5) Cells, cultivated according to manufacturer conditions, were harvested by centrifugation at 300 g/10 min and were then resuspended and diluted to 1.66E5 cells/ml in fresh cell culture medium (RPMI 1640 (Gibco #A10491-01), 10% FCS (Gibco #10500), 1× GlutaMax (Gibco #35050-061), 1× Pen/Strep solution (Gibco #15140-122), 100 μg/ml Normocin (InvivoGen #ant-nr), 100 μg/ml Zeocin (InvivoGen #ant-zn), 10 μg/ml Blasticidin S (Life Technologies #A11139-03)). The baculovirus solution was then added 1:200 (have varied according to virus batch) to the cells (measurement of THP1(vir) IC50).
(§6) 30 μL of the cell/virus-mix were added to each well of the compound plate from column 1-23 via MultiDrop Combi dispenser (5000 cells/well). In column 24, 30 μl/5000 cells/well without virus were added as a low control.
(§7) The plates were then incubated for 18 h at 37° C. in a humidified incubator.
(§8) Following that, 15 μl of QuantiLuc detection reagent (InvivoGen #rep-qlcg5) were added to each well using a MultiDrop Combi. Measurement was done immediately after the addition using an EnVision reader (US-luminescence read-mode).
(§9) For data evaluation and calculation, the measurement of the low control was set as 0% control and the measurement of the high control was set as 100% control. The IC50 values were calculated using the standard 4 parameter logistic regression formula. Calculation: [y=(a−d)/(1+(x/c)^b)+d], a=low value, d=high value; x=conc M; c=IC50 M; b=slope

[2] = system: cGAMP-stimulated THP1-Dual cells (pathway directly downstream of cGAS); assay: cGAMP stimulated counter cell assay: inhibition of IFN induction in cGAMP-stimulated THP1 cells (THP1(cGAMP) IC50); type: cell-based, human; settings: for IC50: Homo sapiens, THP1-Dual, inhibition of IFN induction in cGAMP-stimulated THP1 cells, read-out: THP1(cGAMP) IC50 (converted); for Ratio THP1(cGAMP) IC50 / THP1(vir) IC50: selectivity for cGAS inhibition
From the text: as §1, §2, §3, §4, §5, §6, §7, §8, §9

[3] = system: cellular cGAS activity in dsDNA-stimulated human whole blood; assay: Human whole blood assay (hWB IC50): IFNα2α production after dsDNA transfection; type: cell-based; settings: inhibition of IFN induction in dsDNA-stimulated human whole blood
Protocol: 6.3 Method: Human Whole Blood Assay (Human WB IC50)
For the detection of cellular cGAS activity human whole blood was stimulated by transfection with double stranded DNA. Pathway activity was monitored by measuring the IFNα2α production.
Compounds were delivered as 10 mM DMSO solution and serially diluted and transferred to the 96-well cell culture plate (Corning #3595), prefilled with 20 μl OptiMEM (Gibco, #11058-021) in each well, using an Echo acoustic dispenser. Typically, 8 concentrations were used with the highest concentration at 10 µM in the final assay volume followed by ˜1:5 dilution steps. DMSO concentration was set to 0.1% in the final assay volume. The 96-well assay plate contained 10 test compounds, and DMSO in control wells.
Collection of human whole blood from 3 or more healthy donors (male or female, no medication for 7 days except contraceptive and thyroxine) as Na-Citrate blood (e.g. 3.8% in Monovettes from Sarstedt) was conducted in parallel. Whole blood was kept at room temperature for a maximum of 3 hours after collection until use in the assay.
160 μl of the whole blood samples was transferred to each well of the 96-well assay plates filled with compound/OptiMEM. All assay plates were prepared as duplicates with blood from different donors. Blood plates were kept at room temperature for 60 minutes and continuous shaking with 450 rpm, covered with the lid, but not sealed.
20 μl OptiMEM and 9.6:1 Fugene was added to all low control wells.
After covering assay plates with aera seals and the lid, blood plates were kept at room temperature for 30 minutes and continuous shaking with 450 rpm, followed by an overnight incubation of 22 h at 37° C. in the incubator, without shaking.
For the detection of IFNα-2α in human plasma, the biotinylated capture antibody (Antibody set IFNA2, Meso Scale Diagnostics #B21VH-3, including coating and capture antibody) was diluted 1:17.5 in Diluent 100 (Meso Scale Diagnostics #R^50AA-4), according to the manufacturer's directions. U-Plex MSD GOLD 96-well Small Spot Strepavidin SECTOR Plates (Meso Scale Diagnostics #L45SA-5) were coated with 25 μl diluted capture antibody. Coated plates were incubated for 60 min at room temperature under continuous shaking at 700 rpm. MSD IFNα-2α plates were washed three times with 150 μl wash buffer (1x HBSS, 0.05% Tween).
After blocking the plates with 100 μl block solution/well (1x HBSS with 0.2% Tween, 2% BSA) for 60 min at room temperature and continuous shaking at 700 rpm, plates were emptied as dry as possible by dumping just before continuing with the human plasma.
Whole Blood assay plates were centrifuged at 1600 rpm for 10 minutes. 25 μl of supernatant was transferred with a pipetting robot from each whole blood plate to the corresponding IFNα-2α plate. Plates were sealed with microplate seals and kept at room temperature again under continuous shaking at 700 rpm for two hours.
Next MSD IFNα-2α plates were washed three times with 150 μl wash buffer (1×HBSS, 0.05% Tween), before adding 25 μl MSD SULFO-TAG IFNα-2α Antibody solution (1:100 diluted in Diluent 3 (Meso Scale Diagnostics #R50AP-2) to each well of the plates.
Afterwards plates were sealed with microplate seals and kept at room temperature again under continuous shaking at 700 rpm for two hours. Finally, MSD IFNα-2α plates were washed three times with 150 μl wash buffer (1×HBSS, 0.05% Tween). 150 μl 2× Read buffer was added to each well and plates were immediately measured with the MSD Sector S600 Reader using the vendor barcode.
For data evaluation and calculation, % control calculation of each well was based on the mean of high (DNA stimulated control) and mean of low (unstimulated control) controls by using the following formula:
[counts(sample)−counts(low))/(counts(high)−counts(low))]*100
The IC50 values were calculated using the standard 4 parameter logistic regression formula. Calculation: [y=(a−d)/(1+(x/c)^b)+d], a=low value, d=high value; x=conc M; c=IC50 M; b=slope

cGAS, sequence (Q8N884 whole entry): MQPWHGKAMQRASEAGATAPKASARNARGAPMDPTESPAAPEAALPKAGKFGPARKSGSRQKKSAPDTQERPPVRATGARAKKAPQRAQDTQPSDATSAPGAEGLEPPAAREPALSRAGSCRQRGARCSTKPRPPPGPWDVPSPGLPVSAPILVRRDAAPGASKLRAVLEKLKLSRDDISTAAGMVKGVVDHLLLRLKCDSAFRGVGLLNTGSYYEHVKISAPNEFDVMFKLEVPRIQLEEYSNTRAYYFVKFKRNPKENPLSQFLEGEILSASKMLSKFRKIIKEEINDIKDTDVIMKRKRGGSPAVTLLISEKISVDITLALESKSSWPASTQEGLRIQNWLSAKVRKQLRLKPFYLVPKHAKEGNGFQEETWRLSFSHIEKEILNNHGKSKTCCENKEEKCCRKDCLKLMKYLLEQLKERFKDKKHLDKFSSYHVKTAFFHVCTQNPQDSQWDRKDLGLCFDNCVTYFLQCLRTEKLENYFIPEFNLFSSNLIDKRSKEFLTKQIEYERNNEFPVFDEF

Compound | IC50 (cGAS) | IC50 [1] | IC50 [2] | Ratio THP1(cGAMP) IC50 / THP1(vir) IC50 [2] | IC50 [3]
C[C@@H]1N(c2cc(-c3ccc(C#N)nc3)cnc2O[C@H]2C[C@@H](C(=O)O)N(c3nc(C(F)(F)F)nc4c3oc3ccccc34)C2)CCOC12COC2 [Example 3.23] | 0.008 µM | 0.01 µM | 10 µM | 1029 | 0.07 µM
C#Cc1cnc(O[C@H]2C[C@@H](C(=O)O)N(c3nc(C)nc4c3oc3ccccc34)C2)c(N2CCOC[C@@H]2C)c1 [Example 1.29] | 0.004 µM | 0.296 µM | > 16.6 µM | >56 | 0.061 µM
CC1(C#N)CN(c2cc(Cl)cnc2O[C@H]2C[C@@H](C(=O)O)N(c3nc(C(F)F)nc4c3oc3ccccc34)C2)CCO1 (some centres unmarked) [Example 1.02] | 0.004 µM | 0.697 µM | 21.9 µM | 31 | 3.44 µM
C[C@@H]1N(c2cc(-c3cn(C)cn3)cnc2O[C@H]2C[C@@H](C(=O)O)N(c3nc(C(F)(F)F)nc4c3oc3ccccc34)C2)CCOC12COC2 [Example 3.20] | 0.003 µM | 0.03 µM | 11.5 µM | 383 | 0.05 µM
COc1c(-c2cnc(O[C@H]3C[C@@H](C(=O)O)N(c4nc(C(F)F)nc5c4oc4ccccc45)C3)c(N3CCOC4(COC4)[C@@H]3C)c2)ccnc1N(C)C [Example 4.02] | 0.012 µM | 0.017 µM | 12.6 µM | 735 | 0.042 µM
C#Cc1cnc(O[C@H]2C[C@@H](C(=O)O)N(c3nc(C(F)F)nc4c3oc3ccccc34)C2)c(N2CCOC[C@@H]2C)c1 [Example 1.31] | 0.003 µM | 0.232 µM | > 16.6 µM | >72 | 0.102 µM
C[C@@H]1N(c2cc(-c3cnn(C(F)F)c3)cnc2O[C@H]2C[C@@H](C(=O)O)N(c3nc(C(F)(F)F)nc4c3oc3ccccc34)C2)CCOC12COC2 [Example 3.31] | 0.011 µM | 0.003 µM | 10.9 µM | 4120 | 0.028 µM
